In one assay the target is A2A adenosine receptors (Sus scrofa, UniProt K9IW67). Briefly: Competitive radioligand binding, [3H]ZM241385, pig striatum membranes. The settings on record: [3H]ZM241385, Gpp(NH)p present. How it is done:
Membranes were also obtained from porcine striatial cells as follows. […] The homogenate was filtered through cotton gauze and centrifuged at 48,000g for 15 minutes at 4° C. […] The final pellet was frozen at −80° C. until used for receptor binding assays.

In assay [1] the test system is rat isolated perfused heart. Briefly: Reversal time of coronary vasodilation in rat isolated perfused hearts.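 Further: each agonist bolused at its minimal concentration giving equal maximal coronary conductance rise.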 The conditions noted are these: bolus, rat isolated perfused heart. As to the method: FIG. 10. Reversal of effect of agonist stimulation on CC. […] CC was measured at 8, 16 and 24 minutes after administration (FIG. 10A). […] R and N are the correlation coefficient and number of agonists, respectively.
The relationship between the affinity of agonists for the A2A receptor and the rate of reversal of agonist-mediated responses (coronary vasodilation in heart and cAMP accumulation in PC12 cells) upon termination of drug administration were determined. […] The duration of the coronary vasodilation in isolated rat hearts caused by adenosine, the CVT compounds, and other agonists measured as the time to 50% and 90% (t0.5 and t0.9, respectively) reversal of the increases in coronary conductance after termination of drug administration are summarized in Table 4.

Assay [2] has as its target T1, human A1 adenosine receptors (Homo sapiens, UniProt P30542).
T1 construct: expressed in transfected cells
T1 sequence (P30542 1-326): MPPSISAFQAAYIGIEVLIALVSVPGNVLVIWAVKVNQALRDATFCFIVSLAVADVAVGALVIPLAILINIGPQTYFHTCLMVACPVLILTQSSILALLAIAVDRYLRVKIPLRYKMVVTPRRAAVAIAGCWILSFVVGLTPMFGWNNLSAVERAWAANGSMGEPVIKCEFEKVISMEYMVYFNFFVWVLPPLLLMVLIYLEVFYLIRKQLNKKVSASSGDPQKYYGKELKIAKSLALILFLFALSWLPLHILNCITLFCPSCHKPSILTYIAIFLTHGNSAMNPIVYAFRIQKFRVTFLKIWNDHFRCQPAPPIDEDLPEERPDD
Nature of the assay: Competitive radioligand binding, [3H]CPX, CHO-hA1AdoR membranes. The settings on record: in words. As to the method:
The cell suspensions were homogenized and centrifuged at 48,000g for 15 minutes. The pellets were washed three times by re-suspension in ice-cold Tris-HCl buffer and centrifugation. The final pellet was re-suspended in Tris-HCl, aliquoted and frozen at −80° C. until used for receptor binding assays.

Assay [3] has as its system rat isolated perfused heart. Briefly: Coronary conductance / coronary perfusion pressure in isolated perfused rat hearts. The conditions noted are these: for EC50: Rattus norvegicus. How it is done:
Briefly, rats of either sex weighing 230-260 grams were anesthetized by intraperitoneal injection of a mixture of ketamine (100 mg/ml) and xylazine (20 mg/ml). The chest of each rat was opened and the heart removed, and rinsed in ice-cold modified Krebs-Henseleit (K-H) solution containing NaCl 117.9, KCl 4.5, CaCl2 2.5, MgSO4 1.18, KH2PO4 1.18, pyruvate 2.0 mmo/L. The aorta was cannulated and the heart was perfused at a flow rate of 10 ml/min with modified K-H solution. The K-H solution (pH 7.4) was gassed continuously with 95% O2 and 5% CO2 and warmed to 35±0.5° C. The heart was electrically paced at a fixed cycle length of 240 ms (250 beats/min) using a bipolar electrode placed in the left atrium. The electrical stimuli were generated by a Grass stimulator (Model S48, W. Warwick, R.I.) and delivered through a Stimuli Isolation Unit (Model SIU5, Astro-Med, Inc., NY) as square-wave pulses of 3-msec in duration and with an amplitude of at least twice the threshold intensity.
The identity of the adenosine receptor subtype (A1 or A2A) mediating the coronary vasodilation was determined.
Coronary perfusion pressure (CPP) was measured using a pressure transducer that was connected to the aortic cannula via a T-connector positioned approximately 3 cm above the heart. CPP was monitored throughout an experiment and recorded either on a chart recorder (Gould Recorder 2200S, Valley View, Ohio) or a computerized recording system (PowerLab/4S, ADInstruments Pty Ltd, Australia). Only hearts with CPP ranging from 60 to 85 mmHg (in the absence of drugs) were used in the study. CC conductance (in ml/min/mmHg) was calculated as the ratio between coronary perfusion rate (10 ml/min) and CPP.

Assay [4] can be described thus: Coronary blood flow and reversal time, intracoronary infusion in open-chest anesthetized pigs. In kind it is in vivo. How it is done:
The magnitude of the effect of A2A adenosine receptor agonists on coronary dilation and the duration of the effect was determined in pigs weighing 22-27 kg. […] In addition, animals were used in accordance with the guidelines of the University of Kentucky Institutional Animal Care and Use Protocol.
Anesthesia was maintained with additional sodium pentobarbital (1.5-2 mg/kg, i.v.) every 15-20 minutes. Animals were ventilated via a tracheotomy tube using a mixture of room air and 100% O2. Tidal volume, respiratory rate and fraction of O2 in inspired air were adjusted to maintain arterial blood gas (ABG) and pH values. […] Lactate Ringers solution was administered via an ear or femoral vein as an initial bolus of 300-400 ml followed by a continuous infusion at a rate of 5-7 ml/kg/hr. A catheter was inserted into the femoral artery to monitor arterial blood pressure.
The heart was exposed through a median sternotomy and suspended in a pericardial cradle. Left ventricular pressure (LVP) was measured with a 5F high fidelity pressure sensitive tip transducer (Millar Instruments, Houston, Tex.) placed in the left ventricular cavity via an apical incision and secured with a purse string suture. A segment of the left anterior descending coronary artery (LAD), proximal to the origin of the first diagonal branch, was dissected free of surrounding tissue. A transit time perivascular flow probe (Transonic Systems Inc., Ithaca, N.Y.) was placed around this segment to measure CBF. Proximal to the flow probe, a 24-gauge modified angiocatheter was inserted for intracoronary infusions. […] The A2A adenosine receptors agonists were administered intracoronary.
Relationship between affinity of various agonists for A2A adenosine receptor and the reversal time of their effect to increase coronary conductance was determined in pigs. Each experiment was preceded by a 30-minute stabilization period following the completion of all instrumentation of the animal. Baseline hemodynamic data were then recorded and an intracoronary infusion of an A2A Adenosine receptors agonist was initiated. Each infusion was maintained for 4-5 minutes to allow LAD CBF to reach a steady-state, after which the infusion was terminated. The times to recovery of CBF by 50% (t0.5) and 90% (t0.9) of the difference from peak effect to baseline CBF were recorded. Ten to 15 minutes after CBF returned to pre-drug values a second infusion with a different agonist was started. […] Hemodynamic measurements were made prior to and following the initiation of the phenylephrine infusion. The phenylephrine infusion rate was adjusted during and following the infusions of the adenosine receptor agonists to maintain arterial blood pressure within 5 mmHg of pre-infusion values. The effect of a maximum of three different agonists was determined in each experiment.

[5] abbreviates: read-out: Ki, Pig Strialum (A2A).
Where [6] appears, read: read-out: pKi ± SEM, Pig Strialum (A2A) (converted).

Molecules are shown by their SMILES. Read-outs that look alike come from different tables or passages of the source.

A2A adenosine receptors, sequence (K9IW67 1-409): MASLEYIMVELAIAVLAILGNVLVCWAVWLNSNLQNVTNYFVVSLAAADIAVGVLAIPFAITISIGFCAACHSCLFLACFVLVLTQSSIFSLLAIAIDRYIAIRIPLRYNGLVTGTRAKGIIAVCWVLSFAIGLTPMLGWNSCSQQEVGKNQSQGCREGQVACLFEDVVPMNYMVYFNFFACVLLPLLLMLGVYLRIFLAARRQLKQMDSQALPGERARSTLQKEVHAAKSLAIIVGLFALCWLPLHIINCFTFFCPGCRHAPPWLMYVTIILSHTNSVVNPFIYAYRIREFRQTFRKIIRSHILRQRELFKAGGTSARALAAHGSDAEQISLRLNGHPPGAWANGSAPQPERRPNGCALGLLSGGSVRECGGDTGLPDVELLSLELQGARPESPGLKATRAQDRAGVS

Regarding `CCOC(=O)c1cnn(-c2nc(N)c3ncn([C@@H]4O[C@H](CO)[C@@H](O)[C@H]4O)c3n2)c1` [CVT-3127, ethyl 1-{9-[(4S,2R,3R,5R)-3,4-dihydroxy-5-(hydromethyl)oxolan-2-yl]-6-aminopurin-2-yl}pyrazole-4-carboxylate], the Ki on A2A adenosine receptors (setting [5]) was 64 nM. The Ki on A2A adenosine receptors (setting [6]) was 60.3 nM. In addition, in assay [1], the “t0.5, time to 50% reversal of the increase in coronary conductance” value is on record as 14.8 ± 2.1 min and the “t0.9, time to 90% reversal of the increase in coronary conductance” value turned out to be 15.0 ± 0.8 min.
Turning to `Cc1ccc(-c2nc(N)c3ncn([C@@H]4O[C@H](CO)[C@@H](O)[C@H]4O)c3n2)s1` [CVT-3100], the Ki at A2A adenosine receptors (setting [5]) stood at 697 nM. In addition, in assay [1], the “t0.5, time to 50% reversal of the increase in coronary conductance” value is 5.1 ± 0.6 min and the “t0.9, time to 90% reversal of the increase in coronary conductance” value was determined as 10.1 ± 0.2 min.
In the case of `CCCCC#Cc1nc(N)c2ncn([C@@H]3O[C@H](C(=O)NCC)[C@@H](O)[C@H]3O)c2n1` [HENECA, 2-hexynyladenosine-5′-N-ethyl-, reference compound], the “pKi ± SEM, Pig Strialum (A2A)” value at A2A adenosine receptors is recorded as 8.10 ± 0.08. Also, the Ki at A2A adenosine receptors (setting [5]) turned out to be 7.96 nM. In assay [1], the “t0.5, time to 50% reversal of the increase in coronary conductance” value was determined as 28.6 ± 1.1 min and the “t0.9, time to 90% reversal of the increase in coronary conductance” value turned out to be 32.8 ± 3.1 min.
On to `CCNC(=O)[C@H]1O[C@@H](n2cnc3c(N)nc(NCCc4ccc(CCC(=O)O)cc4)nc32)[C@H](O)[C@@H]1O` [CGS21680, 2-p-(2-carboxy-ethyl) phenethyl-amino-5′-N-ethylcarboxamido-adenosine, reference compound], for which, in assay [2], the “affinity for the A1 receptor expressed by CHO-K1 cells” value was “relatively low affinities”. For the same compound, in assay [3] (100 nM, isolated rat heart), the “decrease in coronary perfusion pressure” value was found to be 23 mmHg. In addition, the EC50 in assay [3] (read-out: EC50, Coronary Conductance (Rat Isolated Heart)) turned out to be 0.54 nM. Also, in assay [3] (read-out: pEC50 ± SEM, Coronary Conductance (Rat Isolated Heart) (converted)), the EC50 is 0.537 nM. Besides, the “effect on coronary conductance” value in assay [3] (isolated rat hearts, in words) is given as “concentration-dependent increases in coronary conductance”. Besides, in assay [4] (2 ug/kg/min intracoronary), the “t0.5 reversal of increase in coronary blood flow” value came out at 9.7 ± 0.8 min and the “t0.9 reversal of increase in coronary blood flow” value worked out at 21.4 ± 0.8 min.
As to `Nc1nc(-c2cnn(CCCc3ccccc3)c2)nc2c1ncn2[C@@H]1O[C@H](CO)[C@@H](O)[C@H]1O` [CVT-3126, (4S,2R,3R,5R)-2-{6-amino-2-[1-(3-phenylpropyl)pyrazol-4-yl]purin-9-yl}-5-(hydroxymethyl)oxolane-3,4-diol], the Ki at A2A adenosine receptors (setting [5]) worked out at 1670 nM. Further, in assay [1], the “t0.5, time to 50% reversal of the increase in coronary conductance” value was 8.3 ± 0.4 min and the “t0.9, time to 90% reversal of the increase in coronary conductance” value is recorded as 12.6 ± 0.3 min.
With `Nc1nc(C#CCOc2ccccc2Cc2ccccc2)nc2c1ncn2[C@@H]1O[C@H](CO)[C@@H](O)[C@H]1O` [CVT-3006, (4S,2R,3R,5R)-2-(6-amino-2-{3-[2-benzylphenoxy]prop-1-ynyl}purin-9-yl)-5-(hydroxymethyl)oxolane-3,4-diol], the Ki at A2A adenosine receptors (setting [5]) was 64 nM; on A2A adenosine receptors (setting [6]), 57.5 nM. The “t0.5, time to 50% reversal of the increase in coronary conductance” value in assay [1] is recorded as 16.1 ± 0.1 min. Moreover, the “t0.9, time to 90% reversal of the increase in coronary conductance” value in assay [1] is on record as 21.8 ± 2.0 min.
On to `C[C@H](Cc1ccccc1)Nc1ncnc2c1ncn2[C@@H]1O[C@H](CO)[C@@H](O)[C@H]1O` [R-PIA, Phenylisopropyladenosine, reference compound], for which the “pKi ± SEM, Pig Strialum (A2A)” value on A2A adenosine receptors was found to be 5.96 ± 0.06. Besides, the Ki on A2A adenosine receptors (setting [5]) turned out to be 1110 nM.
As to `CCCCCCC#Cc1nc(N)c2ncn([C@@H]3O[C@H](CO)[C@@H](O)[C@H]3O)c2n1` [YT-146, reference compound], the “pKi ± SEM, Pig Strialum (A2A)” value on A2A adenosine receptors is on record as 7.86 ± 0.33. The Ki at A2A adenosine receptors (setting [5]) stood at 16.3 nM. Moreover, in assay [1], the “t0.5, time to 50% reversal of the increase in coronary conductance” value worked out at 17.7 ± 1.0 min and the “t0.9, time to 90% reversal of the increase in coronary conductance” value was found to be 25.8 ± 4.0 min. Besides, in assay [4] (1 ug/kg/min intracoronary), the “CBF (fold-increase)” value came out at 3.44 ± 0.47 fold, the “t0.5 reversal of increase in coronary blood flow” value is given as 17.8 ± 3.4 min and the “t0.9 reversal of increase in coronary blood flow” value turned out to be 32.9 ± 5.6 min.
For `N#Cc1ccc(OCC#Cc2nc(N)c3ncn([C@@H]4O[C@H](CO)[C@@H](O)[C@H]4O)c3n2)cc1` [CVT-3101, 4-(3-{9-[(4S,2R,3R,5R)-3,4-dihydroxy-5-(hydroxymethyl)oxolan-2-yl]-6-aminopurin-2-yl}prop-2-ynyloxy)benzenecarbonitrile], on A2A adenosine receptors (setting [5]), the Ki is 94 nM. Further, in assay [1], the “t0.5, time to 50% reversal of the increase in coronary conductance” value was found to be 16.7 ± 0.5 min and the “t0.9, time to 90% reversal of the increase in coronary conductance” value was 25.6 ± 0.3 min.
In the same order, the values of `Nc1nc(-c2cccs2)nc2c1ncn2[C@@H]1O[C@H](CO)[C@@H](O)[C@H]1O` [CVT-3003, (4S,2R,3R,5R)-2-(6-amino-2-(2-thienyl)pruin-9-yl)-5-(hydroxymethyl)oxolane-3,4-diol] are 1010 nM, 3.4 ± 0.1 min and 9.2 ± 2.2 min.
Consider `Nc1nc(-n2cc(-c3ccc(Cl)cc3)cn2)nc2c1ncn2[C@@H]1O[C@H](CO)[C@@H](O)[C@H]1O` [CVT-3141, (4S,2R,3R,5R)-2-{6-amino-2-[4-(4-chlorophenyl)pyrazole]purin-9-yl}-5-(hydroxymethyl)oxolane-3,4-diol], for which, in assay [1], the “t0.5, time to 50% reversal of the increase in coronary conductance” value came out at 14.4 ± 1.9 min and the “t0.9, time to 90% reversal of the increase in coronary conductance” value is 21.3 ± 3.9 min.
As for `Cc1ccc(-c2cnn(-c3nc(N)c4ncn([C@@H]5O[C@H](CO)[C@@H](O)[C@H]5O)c4n3)c2)cc1`, the Ki at A2A adenosine receptors (setting [5]) turned out to be 502 nM. In addition, the Ki at A2A adenosine receptors (setting [6]) is 490 nM. Further, in assay [1], the “t0.5, time to 50% reversal of the increase in coronary conductance” value is reported as 13.6 ± 1.3 min and the “t0.9, time to 90% reversal of the increase in coronary conductance” value was determined as 18.9 ± 1.9 min.
